Results as given in patent US4442044A, “Process for preparing monoesters and diesters of N-alkyl substituted amino methyl phosphonic acid” (priority 1983, dated 1984).

Columns and labels:
Experiment in all cases: post-emergent herbicidal activity, greenhouse
Assay type in all cases: in vivo
Conditions in all cases: Table I, 4 WAT
[1] = test system: Barnyardgrass
Excerpt: (§1) A good grade of top soil is placed in aluminum pans having holes in the bottom and compacted to a depth of 0.95 to 1.27 cm. from the top of the pan. A predetermined number of seeds of each of several dicotyledonous and monocotyledonous annual plant species and/or vegetative propagules for the perennial plant species were placed on the soil and pressed into the soil surface. The seeds and/or vegetative propagules are covered with soil and leveled. The pans are then placed on a sand bench in the greenhouse and watered from below as needed. After the plants reach the desired age (two to three weeks), each pan except for the control pans is removed individually to a spraying chamber and sprayed by means of an atomizer operating at a positive air pressure of approximately 1.46 kg/cm^2 absolute. The atomizer contains 6 ml. of a solution or suspension of the chemical. In that 6 ml., is an amount of a cyclohexanone emulsifying agent mixture to give a spray solution or suspension which contains about 0.4% by weight of the emulsifier. The spray solution or suspension contains a sufficient amount of the candidate chemical in order to give application rates corresponding to those set forth in the tables. The spray solution is prepared by taking an aliquot of a 1.0% by weight stock solution or suspension of the candidate chemical in an organic solvent such as acetone or tetrahydrofuran or in water. The emulsifying agent employed is a mixture comprising 35 weight percent butylamine dodecylbenzene sulfonate and 65 weight percent of a tall oil ethylene oxide condensate having about 11 moles of ethylene oxide per mole of tall oil. The pans are returned to the greenhouse and watered as before and the injury to the plants as compared to the control is observed at approximately two and four weeks as indicated in the tables under WAT and the results recorded. In some instances, the two-week observations are omitted.
(§2) The post-emergent herbicidal activity index used in Tables I and II is as follows: […]

[2] = test system: Morningglory
Excerpt: as §1, §2

[3] = test system: Quackgrass
Excerpt: as §1, §2

[4] = test system: Smartweed
Excerpt: as §1, §2

[5] = test system: Velvetleaf
Excerpt: as §1, §2

[6] = test system: Downy Brome
Excerpt: as §1, §2

[7] = test system: Lambsquarters
Excerpt: as §1, §2

[8] = test system: Johnsongrass
Excerpt: as §1, §2

[9] = test system: Yellow Nutsedge
Excerpt: as §1, §2

[10] = test system: Canada Thistle
Excerpt: as §1, §2

[11] = test system: Cocklebur
Excerpt: as §1, §2

Row | Compound | post-emergent herbicidal activity index ([1]; 11.2 kg/h) | post-emergent herbicidal activity index ([2]; 11.2 kg/h) | post-emergent herbicidal activity index ([3]; 11.2 kg/h) | post-emergent herbicidal activity index ([4]; 11.2 kg/h) | post-emergent herbicidal activity index ([5]; 11.2 kg/h) | post-emergent herbicidal activity index ([6]; 11.2 kg/h) | post-emergent herbicidal activity index ([7]; 11.2 kg/h) | post-emergent herbicidal activity index ([8]; 11.2 kg/h) | post-emergent herbicidal activity index ([9]; 11.2 kg/h) | post-emergent herbicidal activity index ([10]; 11.2 kg/h) | post-emergent herbicidal activity index ([11]; 11.2 kg/h) | further results
1 | CCOC(=O)CNCP(=O)(O)OC(C)CC(=O)OCC (centres unmarked) [Example 25] | 2 (50-74% control) | 2 (50-74% control) | 1 (25-49% control) | 0 (0-24% control) | 1 (25-49% control) | 0 (0-24% control) | 0 (0-24% control) | 2 (50-74% control) | 2 (50-74% control) | 1 (25-49% control) | 2 (50-74% control) | post-emergent herbicidal activity index ([1]; 5.6 kg/h): 1 (25-49% control); post-emergent herbicidal activity index ([2]; 5.6 kg/h): 1 (25-49% control); post-emergent herbicidal activity index ([3]; 5.6 kg/h): 0 (0-24% control); post-emergent herbicidal activity index ([4]; 5.6 kg/h): 0 (0-24% control); post-emergent herbicidal activity index ([5]; 5.6 kg/h): 0 (0-24% control); post-emergent herbicidal activity index ([6]; 5.6 kg/h): 0 (0-24% control); post-emergent herbicidal activity index ([7]; 5.6 kg/h): 0 (0-24% control); post-emergent herbicidal activity index ([8]; 5.6 kg/h): 1 (25-49% control); post-emergent herbicidal activity index ([9]; 5.6 kg/h): 0 (0-24% control); post-emergent herbicidal activity index ([10]; 5.6 kg/h): 0 (0-24% control); post-emergent herbicidal activity index ([11]; 5.6 kg/h): 0 (0-24% control)
2 | CCOC(=O)CNCP(=O)(O)OCC(Cl)(Cl)Cl [Example 26, glycine, N-[[(2,2,2-trichloroethoxy)hydroxyphosphinyl]methyl]-ethyl ester] | 1 (25-49% control) | 0 (0-24% control) | 0 (0-24% control) | 0 (0-24% control) | 0 (0-24% control) | 0 (0-24% control) | 1 (25-49% control) | 0 (0-24% control) | 0 (0-24% control) | 0 (0-24% control) | 1 (25-49% control) | post-emergent herbicidal activity index ([1]; 56.0 kg/h): 1 (25-49% control); post-emergent herbicidal activity index ([2]; 56.0 kg/h): 1 (25-49% control); post-emergent herbicidal activity index ([3]; 56.0 kg/h): 0 (0-24% control); post-emergent herbicidal activity index ([4]; 56.0 kg/h): 1 (25-49% control); post-emergent herbicidal activity index ([5]; 56.0 kg/h): 0 (0-24% control); post-emergent herbicidal activity index ([6]; 56.0 kg/h): 0 (0-24% control); post-emergent herbicidal activity index ([7]; 56.0 kg/h): 1 (25-49% control); post-emergent herbicidal activity index ([8]; 56.0 kg/h): 0 (0-24% control); post-emergent herbicidal activity index ([9]; 56.0 kg/h): 1 (25-49% control); post-emergent herbicidal activity index ([10]; 56.0 kg/h): 0 (0-24% control); post-emergent herbicidal activity index ([11]; 56.0 kg/h): 1 (25-49% control)
